# Source: patent publication US20230365592A1 (Agios Pharmaceuticals, Inc., priority 2022, published 2023)
# Target: T1, human PAH with the R408W mutation (Homo sapiens, UniProt P00439, R408W)
# T1 construct: expressed in transfected cells
# T1 sequence (P00439 1-452 R408W): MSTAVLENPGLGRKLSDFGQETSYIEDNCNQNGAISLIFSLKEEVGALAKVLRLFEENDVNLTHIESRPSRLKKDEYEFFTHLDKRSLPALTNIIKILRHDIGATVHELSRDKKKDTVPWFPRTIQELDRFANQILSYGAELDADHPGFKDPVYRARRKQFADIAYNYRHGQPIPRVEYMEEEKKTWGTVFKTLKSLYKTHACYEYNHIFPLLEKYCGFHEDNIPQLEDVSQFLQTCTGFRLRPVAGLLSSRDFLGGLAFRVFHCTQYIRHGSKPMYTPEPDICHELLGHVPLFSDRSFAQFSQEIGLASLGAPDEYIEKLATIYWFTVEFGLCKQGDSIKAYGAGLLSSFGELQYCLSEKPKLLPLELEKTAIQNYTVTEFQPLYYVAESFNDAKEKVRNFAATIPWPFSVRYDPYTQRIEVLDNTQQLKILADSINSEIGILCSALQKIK
# Test: Cell Based Phenylalanine Flux Assay;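 also: after compound treatment, cells received sepiapterin plus isotope-labelled Phenylalanine for 4 hours, then labelled Tyrosine in the medium was quantified, 10-point 2-fold dilution series run in duplicate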
# Conditions: A375 cells expressing human R408W PAH; 24 hrs compound incubation; 13C-Tyrosine by LC-MS; average where tested multiple times; read-out: AC50
row,AC50 [nM],Structure (SMILES)
1,500 to 1000,"O=C(c1nnc(-c2cnn(C(F)(F)F)c2)o1)N1CCc2[nH]cnc2[C@H]1c1cc2c(C(F)(F)F)cccn2n1 [Example 1538, (S)-(5-(1-(trifluoromethyl)-1H-pyrazol-4-yl)-1,3,4-oxadiazol-2-yl)(4-(4-(trifluoromethyl)pyrazolo[1,5-a]pyridin-2-yl)-6,7-dihydro-1H-imidazo[4,5-c]pyridin-5(4H)-yl)methanone]"
2,500 to 1000,"O=C(c1nnc(-c2cnn(C(F)(F)F)c2)o1)N1CCc2[nH]cnc2[C@H]1c1cc2c(F)cccn2n1 [Example 1540, (S)-(4-(4-fluoropyrazolo[1,5-a]pyridin-2-yl)-6,7-dihydro-1H-imidazo[4,5-c]pyridin-5(4H)-yl)(5-(1-(trifluoromethyl)-1H-pyrazol-4-yl)-1,3,4-oxadiazol-2-yl)methanone]"
3,500 to 1000,"O=C(c1nnc(-c2ccn(C(F)(F)F)n2)o1)N1CCc2[nH]cnc2[C@H]1c1cc2cccc(C(F)(F)F)n2n1 [Example 1542, (S)-(5-(1-(trifluoromethyl)-1H-pyrazol-3-yl)-1,3,4-oxadiazol-2-yl)(4-(7-(trifluoromethyl)pyrazolo[1,5-a]pyridin-2-yl)-6,7-dihydro-1H-imidazo[4,5-c]pyridin-5(4H)-yl)methanone]"
4,< 500,"O=C(c1nnc(-c2ccn(C(F)(F)F)n2)o1)N1CCc2[nH]cnc2[C@H]1c1cc2cccc(C(F)F)n2n1 [Example 1544, (S)-(4-(7-(difluoromethyl)pyrazolo[1,5-a]pyridin-2-yl)-6,7-dihydro-1H-imidazo[4,5-c]pyridin-5(4H)-yl)(5-(1-(trifluoromethyl)-1H-pyrazol-3-yl)-1,3,4-oxadiazol-2-yl)methanone]"
5,1000 to 5000,"O=C(c1nnc(-c2ccn(C(F)(F)F)n2)o1)N1CCc2[nH]cnc2[C@@H]1c1cc2cccc(C(F)F)n2n1 [Example 1545, (R)-(4-(7-(difluoromethyl)pyrazolo[1,5-a]pyridin-2-yl)-6,7-dihydro-1H-imidazo[4,5-c]pyridin-5(4H)-yl)(5-(1-(trifluoromethyl)-1H-pyrazol-3-yl)-1,3,4-oxadiazol-2-yl)methanone]"
6,500 to 1000,"CN(C)Cc1ccc2c(C(=O)N3CCc4[nH]cnc4[C@H]3c3cc4c(C(F)(F)F)cccn4n3)cnn2c1 [Example 1546, (S)-(6-((dimethylamino)methyl)pyrazolo[1,5-a]pyridin-3-yl)(4-(4-(trifluoromethyl)pyrazolo[1,5-a]pyridin-2-yl)-6,7-dihydro-1H-imidazo[4,5-c]pyridin-5(4H)-yl)methanone]"
7,> 5000,"CN(C)Cc1ccc2c(C(=O)N3CCc4[nH]cnc4[C@@H]3c3cc4c(C(F)(F)F)cccn4n3)cnn2c1 [Example 1547, (R)-(6-((dimethylamino)methyl)pyrazolo[1,5-a]pyridin-3-yl)(4-(4-(trifluoromethyl)pyrazolo[1,5-a]pyridin-2-yl)-6,7-dihydro-1H-imidazo[4,5-c]pyridin-5(4H)-yl)methanone]"
8,500 to 1000,"COCc1ccc2c(C(=O)N3CCc4[nH]cnc4[C@H]3c3cc4c(C(F)(F)F)cccn4n3)cnn2c1 [Example 1548, (S)-(6-(methoxymethyl)pyrazolo[1,5-a]pyridin-3-yl)(4-(4-(trifluoromethyl)pyrazolo[1,5-a]pyridin-2-yl)-6,7-dihydro-1H-imidazo[4,5-c]pyridin-5(4H)-yl)methanone]"
9,1000 to 5000,"COCc1ccc2c(C(=O)N3CCc4[nH]cnc4[C@@H]3c3cc4c(C(F)(F)F)cccn4n3)cnn2c1 [Example 1549, (R)-(6-(methoxymethyl)pyrazolo[1,5-a]pyridin-3-yl)(4-(4-(trifluoromethyl)pyrazolo[1,5-a]pyridin-2-yl)-6,7-dihydro-1H-imidazo[4,5-c]pyridin-5(4H)-yl)methanone]"
10,1000 to 5000,"O=C(c1cnn2cc(-c3ccccn3)ccc12)N1CCc2[nH]cnc2[C@@H]1c1cc2c(C(F)(F)F)cccn2n1 [Example 1551, (R)-(6-(pyridin-2-yl)pyrazolo[1,5-a]pyridin-3-yl)(4-(4-(trifluoromethyl)pyrazolo[1,5-a]pyridin-2-yl)-6,7-dihydro-1H-imidazo[4,5-c]pyridin-5(4H)-yl)methanone]"
11,1000 to 5000,"CC(C)c1nnc(C(=O)N2CCc3[nH]cnc3[C@H]2c2cc3cccc(F)n3n2)o1 [Example 1555, (S)-(4-(7-fluoropyrazolo[1,5-a]pyridin-2-yl)-6,7-dihydro-1H-imidazo[4,5-c]pyridin-5(4H)-yl)(5-isopropyl-1,3,4-oxadiazol-2-yl)methanone]"
12,< 500,"Cc1cccn2nc([C@@H]3c4nc[nH]c4CCN3C(=O)c3nnc(C4CCC4)o3)cc12 [Example 1556, (S)-(5-cyclobutyl-1,3,4-oxadiazol-2-yl)(4-(4-methylpyrazolo[1,5-a]pyridin-2-yl)-6,7-dihydro-1H-imidazo[4,5-c]pyridin-5(4H)-yl)methanone]"
13,1000 to 5000,"Cc1cccn2nc([C@H]3c4nc[nH]c4CCN3C(=O)c3nnc(C4CCC4)o3)cc12 [Example 1557, (R)-(5-cyclobutyl-1,3,4-oxadiazol-2-yl)(4-(4-methylpyrazolo[1,5-a]pyridin-2-yl)-6,7-dihydro-1H-imidazo[4,5-c]pyridin-5(4H)-yl)methanone]"
14,< 500,"O=C(c1nnc(C2CCC2)o1)N1CCc2[nH]cnc2[C@H]1c1cc2c(F)cccn2n1 [Example 1559, (S)-(5-cyclobutyl-1,3,4-oxadiazol-2-yl)(4-(4-fluoropyrazolo[1,5-a]pyridin-2-yl)-6,7-dihydro-1H-imidazo[4,5-c]pyridin-5(4H)-yl)methanone]"
15,> 5000,"O=C(c1nnc(C2CCC2)o1)N1CCc2[nH]cnc2[C@@H]1c1cc2cccc(Cl)n2n1 [Example 1560, (R)-(4-(7-chloropyrazolo[1,5-a]pyridin-2-yl)-6,7-dihydro-1H-imidazo[4,5-c]pyridin-5(4H)-yl)(5-cyclobutyl-1,3,4-oxadiazol-2-yl)methanone]"
16,< 500,"O=C(c1nnc(C2CCC2)o1)N1CCc2[nH]cnc2[C@H]1c1cc2cccc(Cl)n2n1 [Example 1561, (S)-(4-(7-chloropyrazolo[1,5-a]pyridin-2-yl)-6,7-dihydro-1H-imidazo[4,5-c]pyridin-5(4H)-yl)(5-cyclobutyl-1,3,4-oxadiazol-2-yl)methanone]"
17,500 to 1000,"Cc1cccc2cc([C@@H]3c4nc[nH]c4CCN3C(=O)c3nnc(C4CCC4)o3)nn12 [Example 1562, (S)-(5-cyclobutyl-1,3,4-oxadiazol-2-yl)(4-(7-methylpyrazolo[1,5-a]pyridin-2-yl)-6,7-dihydro-1H-imidazo[4,5-c]pyridin-5(4H)-yl)methanone]"
18,1000 to 5000,"Cc1cccc2cc([C@H]3c4nc[nH]c4CCN3C(=O)c3nnc(C4CCC4)o3)nn12 [Example 1563, (R)-(5-cyclobutyl-1,3,4-oxadiazol-2-yl)(4-(7-methylpyrazolo[1,5-a]pyridin-2-yl)-6,7-dihydro-1H-imidazo[4,5-c]pyridin-5(4H)-yl)methanone]"
19,> 5000,"Cc1cc(-c2nnc(C(=O)N3CCc4[nH]cnc4[C@@H]3c3cc4cccc(F)n4n3)o2)nn1C [Example 1564, (R)-(5-(1,5-dimethyl-1H-pyrazol-3-yl)-1,3,4-oxadiazol-2-yl)(4-(7-fluoropyrazolo[1,5-a]pyridin-2-yl)-6,7-dihydro-1H-imidazo[4,5-c]pyridin-5(4H)-yl)methanone]"
20,500 to 1000,"Cc1nn(C)cc1-c1nnc(C(=O)N2CCc3[nH]cnc3[C@H]2c2cc3cccc(F)n3n2)o1 [Example 1566, (S)-(5-(1,3-dimethyl-1H-pyrazol-4-yl)-1,3,4-oxadiazol-2-yl)(4-(7-fluoropyrazolo[1,5-a]pyridin-2-yl)-6,7-dihydro-1H-imidazo[4,5-c]pyridin-5(4H)-yl)methanone]"
21,1000 to 5000,"Cc1nn(C)cc1-c1nnc(C(=O)N2CCc3[nH]cnc3[C@@H]2c2cc3cccc(F)n3n2)o1 [Example 1567, (R)-(5-(1,3-dimethyl-1H-pyrazol-4-yl)-1,3,4-oxadiazol-2-yl)(4-(7-fluoropyrazolo[1,5-a]pyridin-2-yl)-6,7-dihydro-1H-imidazo[4,5-c]pyridin-5(4H)-yl)methanone]"
22,> 5000,"Cc1cnn(C)c1-c1nnc(C(=O)N2CCc3[nH]cnc3[C@@H]2c2cc3c(C(F)F)cccn3n2)o1 [Example 1569, (R)-(4-(4-(difluoromethyl)pyrazolo[1,5-a]pyridin-2-yl)-6,7-dihydro-1H-imidazo[4,5-c]pyridin-5(4H)-yl)(5-(1,4-dimethyl-1H-pyrazol-5-yl)-1,3,4-oxadiazol-2-yl)methanone]"
23,< 500,"O=C(c1nnc(-c2cnn(C(F)(F)F)c2)o1)N1CCc2[nH]cnc2[C@H]1c1cc2c(C(F)F)cccn2n1 [Example 1570, (S)-(4-(4-(difluoromethyl)pyrazolo[1,5-a]pyridin-2-yl)-6,7-dihydro-1H-imidazo[4,5-c]pyridin-5(4H)-yl)(5-(1-(trifluoromethyl)-1H-pyrazol-4-yl)-1,3,4-oxadiazol-2-yl)methanone]"
24,1000 to 5000,"O=C(c1nnc(-c2cnn(C(F)(F)F)c2)o1)N1CCc2[nH]cnc2[C@@H]1c1cc2c(C(F)F)cccn2n1 [Example 1571, (R)-(4-(4-(difluoromethyl)pyrazolo[1,5-a]pyridin-2-yl)-6,7-dihydro-1H-imidazo[4,5-c]pyridin-5(4H)-yl)(5-(1-(trifluoromethyl)-1H-pyrazol-4-yl)-1,3,4-oxadiazol-2-yl)methanone]"
25,1000 to 5000,"O=C(c1nnc(C2CCC2)o1)N1CCc2[nH]cnc2[C@@H]1c1cc2cccc(C(F)F)n2n1 [Example 1572, (R)-(5-cyclobutyl-1,3,4-oxadiazol-2-yl)(4-(7-(difluoromethyl)pyrazolo[1,5-a]pyridin-2-yl)-6,7-dihydro-1H-imidazo[4,5-c]pyridin-5(4H)-yl)methanone]"
